Marks after values point to notes of the source that are not given here. Starred links: 1 amine or outer side, 2 acyl side, 3 side chain; linkers in the order of their positions; H or OH if unused. Positions of bridges follow the written chain, without caps; N, C: chain ends. Non-standard residues stand in square brackets, D forms with d. Residues, ends and D or L forms follow the SMILES beside them. *: point of attachment. hTyr(3S-OH,4S-OH,3'-OSO3H) = N[C@H](C(=O)O)[C@H](O)[C@@H](O)c1ccc(O)c(OS(=O)(=O)O)c1; Orn(4R-OH,5R-OH) = O=C([C@H](C[C@@H](O)[C@@H](O)N[*:3])N[*:1])[*:2]; Pro(3S-OH,4S-Me) = C[C@H]1CN[C@H](C(=O)O)[C@H]1O; X2 = CCCCCOc1ccc(-c2cc(-c3ccc(C(=O)*)cc3)no2)cc1; Gln(3R-OH) = NC(=O)C[C@@H](O)[C@H](N)C(=O)O; Hyp = O=C(O)[C@@H]1C[C@@H](O)CN1; X1 = CC[C@H](C)CCCCC(=O)*; Dab = NCC[C@H](N)C(=O)O
Key:
[1] = cited from earlier work
[2] = ref DrugBank [12]; cited from earlier work
[3] = Drug recovery in the Sorin ECMO circuit; conditions: phosphorylcholine-coated circuit, whole human blood, 37°C, HPLC-MS/MS, % of 2 min concentration, single measurement
Method: (§1) Four healthy volunteers were recruited. After obtaining informed consent, 402 ml of blood was collected through the cubitus vein using disposable blood bags (Fresenius Kabi), of which 2 ml was used for a routine blood examination. Sorin (LivaNova, London, United Kingdom) and Maquet (Getinge AB, Hirrlingen, Germany) ECMO circuits were used to establish self-circulation and were primed with fresh whole human blood. After the circulation stabilized, the drugs were added to the circuit. Blood samples were collected at different time points, and the drug concentration was measured to observe the recovery rate of different drugs in the ECMO cycle.
(§2) Each circuit consisted of a membrane oxygenator, centrifugal pump, cannula, heat exchanger, and PVC tubing. The materials of each ECMO component are shown in Supplementary Material 1. A reservoir bag containing 30 mL of blood was used to construct a bypass to maintain the pressure of the circuit (Figure 1). Eight hundred milliliters of fresh whole human blood (<1 h old) was used to prime the circuit. Heparin (5,000 U) was added to the circuits to prevent clotting.
(§3) The circuit flow rate was controlled at 4–5 L/min. Circuit temperature was maintained at 37°C.
(§4) These bolus doses were selected to produce concentrations similar to clinical concentrations. The order of administration was determined according to the half-life from long to short. According to the drug instructions, none of the drugs interact with each other ([12]). Two milliliters of physiological saline solution (0.9%) was used to flush the tube after injection of all drugs to avoid drug loss at the entrance of administration.
(§5) In this study, two experiments were carried out and 26 blood samples were analyzed. The first experiment was conducted with the Maquet ECMO circuit. […] The blood samples collected at each time point were measured twice due to the uncertainty of the initial experiment.

[4] = cited from earlier work; for Lipophilicity (log P): ref DrugBank [12]
[5] = cited from earlier work; remark: listed apart in the source
[6] = Control group: spontaneous drug degradation in whole blood at 37°C; conditions: HPLC-MS/MS; for Drug recovery, Control-24 h (Sorin experiment) / Drug recovery, Control-6 h (Sorin experiment) / Drug recovery, Control-3 h (Sorin experiment): control of Sorin experiment, single measurement; for Drug recovery, Control-24 h (Sorin experiment) / Mean drug recovery, Control-3 h (Maquet experiment) / Mean drug recovery, Control-6 h (Maquet experiment) / Mean drug recovery, Control-12 h (Maquet experiment) / Mean drug recovery, Control-24 h (Maquet experiment) / Drug recovery, Control-6 h (Sorin experiment) / Drug recovery, Control-3 h (Sorin experiment): whole human blood, no circuit, % of 2 min concentration; for Drug recovery, Control-24 h (Sorin experiment) / Drug recovery (%) from control group at 24 h / Mean drug recovery, Control-24 h (Maquet experiment): water bath 37°C 24 h; for Drug recovery (%) from control group at 24 h: controls of both experiments, whole human blood taken 2 min after injection, not passed through circuit, relative to 2 min baseline; for Drug recovery (%) from control group at 24 h / Mean drug recovery, Control-3 h (Maquet experiment) / Mean drug recovery, Control-6 h (Maquet experiment) / Mean drug recovery, Control-12 h (Maquet experiment) / Mean drug recovery, Control-24 h (Maquet experiment): mean (SD), SD; for Mean drug recovery, Control-3 h (Maquet experiment) / Mean drug recovery, Control-6 h (Maquet experiment) / Mean drug recovery, Control-12 h (Maquet experiment) / Mean drug recovery, Control-24 h (Maquet experiment): control of Maquet experiment, n=2; for Mean drug recovery, Control-3 h (Maquet experiment) / Drug recovery, Control-3 h (Sorin experiment): water bath 37°C 3 h; for Mean drug recovery, Control-6 h (Maquet experiment) / Drug recovery, Control-6 h (Sorin experiment): water bath 37°C 6 h; for Mean drug recovery, Control-12 h (Maquet experiment): water bath 37°C 12 h
[7] = Drug recovery in blood-primed ex vivo ECMO circuits (average of Maquet and Sorin); conditions: for Drug recovery (%) from circuits at 24 h: average over Maquet and Sorin circuits, closed loop primed with fresh whole human blood, 37°C, pH 7.25–7.55, 4–5 L/min, plasma HPLC-MS/MS, relative to 2 min baseline, mean (SD), SD
Method: as §1, §2, §3, §4

[8] = Drug recovery in the Maquet ECMO circuit; conditions: Bioline-coated circuit, whole human blood, 37°C, HPLC-MS/MS, % of 2 min concentration, mean (SD), n=2
Method: as §1, §2, §3, §4, §5

In the case of CCCCCOc1ccc(-c2cc(-c3ccc(C(=O)N[C@H]4C[C@@H](O)[C@@H](O)NC(=O)[C@@H]5[C@@H](O)[C@@H](C)CN5C(=O)[C@H]([C@H](O)CC(N)=O)NC(=O)[C@H]([C@H](O)[C@@H](O)c5ccc(O)c(OS(=O)(=O)O)c5)NC(=O)[C@@H]5C[C@@H](O)CN5C(=O)[C@H]([C@@H](C)O)NC4=O)cc3)no2)cc1 [Micafungin, micafungin] (X2-[Orn(4R-OH,5R-OH)]T[Hyp][hTyr(3S-OH,4S-OH,3'-OSO3H)][Gln(3R-OH)][Pro(3S-OH,4S-Me)]; lactam 1-C), the “Vd in infants on ECMO, higher than in infants not on ECMO” value ([1]; infants on ECMO versus infants not on ECMO) is listed as 20–90%, the “Protein binding rate (%)” value [2] is listed as over 99% and the “Drug recovery, Sorin circuit, 24 h” value [3] is listed as 66.85 (-)^* %. For the same molecule, the “Lipophilicity (log P)” value [4] was −1.5, the “Average drug recovery in the control group at 24 h” value ([5]; control group, ex vivo study by Watt et al.) was 57% and the “Average drug recovery in the ECMO loop at 24 h” value ([5]; ex vivo study by Watt et al.) was 26–43%. The “Drug recovery, Control-24 h (Sorin experiment)” value [6] was 98.82 (-)^* %.

In the case of C[C@@H](c1ncncc1F)[C@](O)(Cn1cncn1)c1ccc(F)cc1F [Voriconazole, voriconazole], the “Lipophilicity (log P)” value [4] is listed as 2.561.

In the case of CC[C@H](C)C[C@H](C)CCCCCCCCC(=O)N[C@H]1C[C@@H](O)[C@@H](NCCN)NC(=O)[C@@H]2[C@@H](O)CCN2C(=O)[C@H]([C@H](O)CCN)NC(=O)[C@H]([C@H](O)[C@@H](O)c2ccc(O)cc2)NC(=O)[C@@H]2C[C@@H](O)CN2C(=O)[C@H]([C@@H](C)O)NC1=O [Caspofungin, caspofungin], the “Protein binding rate (%)” value [2] is listed as 97%, the “Lipophilicity (log P)” value [4] is listed as −2.798 and the “Average drug recovery at 24 h in the ECMO circuit” value ([5]; ex vivo experiment by Shekar et al.) is listed as 56%. For the same molecule, the “Drug recovery (%) from control group at 24 h” value [6] was 85.24 (7.93) % and the “Drug recovery (%) from circuits at 24 h” value [7] was 83.26 (6.17) %.

In the case of CC(C)c1cccc(C(C)C)c1O [propofol], the “octanol/water partition (log P)” value [4] is given as 4.0.

In the case of CN(C)c1cc(NC(=O)CNC(C)(C)C)c(O)c2c1C[C@H]1C[C@H]3[C@H](N(C)C)C(O)=C(C(N)=O)C(=O)[C@@]3(O)C(O)=C1C2=O [Tigecycline, tigecycline], the “Average Vd in critically ill patients” value ([1]; critically ill patients, no reference given) is listed as 398 L, the “Lipophilicity (log P)” value [4] is listed as 0.8 and the “Drug recovery (%) from control group at 24 h” value [6] is listed as 144.54 (2.31) %. For the same molecule, the “Drug recovery (%) from circuits at 24 h” value [7] was 100.03 (13.68) %.

In the case of CCN1CCN(C(=O)N[C@@H](C(=O)N[C@@H]2C(=O)N3C(C(=O)O)=C(CSc4nnnn4C)CS[C@H]23)c2ccc(O)cc2)C(=O)C1=O [Cefoperazone, cefoperazone], the “Drug recovery, Sorin circuit, 5 min” value [3] is reported as 100%, the “Drug recovery, Sorin circuit, 15 min” value [3] is reported as 100% and the “Drug recovery, Sorin circuit, 30 min” value [3] is reported as 99%. The “Drug recovery, Sorin circuit, 1 h” value ([3]; 1 h) was 102%, the “Drug recovery, Sorin circuit, 6 h” value [3] was 98% and the “Drug recovery, Sorin circuit, 12 h” value [3] was 92%. For the same molecule, the “Drug recovery, Sorin circuit, 24 h” value [3] was 75%, the “Lipophilicity (log P)” value [4] was −0.74 and the “Mean drug recovery, Control-3 h (Maquet experiment)” value [6] was 100% (0%). The “Mean drug recovery, Control-6 h (Maquet experiment)” value [6] was 99% (0%), the “Mean drug recovery, Control-12 h (Maquet experiment)” value [6] was 100% (2%) and the “Mean drug recovery, Control-24 h (Maquet experiment)” value [6] was 98% (2%). For the same molecule, the “Drug recovery, Control-6 h (Sorin experiment)” value [6] was 98%, the “Drug recovery, Control-24 h (Sorin experiment)” value [6] was 98% and the “Drug recovery (%) from control group at 24 h” value [6] was 98.30 (1.17) %. The “Mean drug recovery, Maquet circuit, 5 min” value [8] was 102% (3%), the “Mean drug recovery, Maquet circuit, 15 min” value [8] was 100% (4%) and the “Mean drug recovery, Maquet circuit, 30 min” value [8] was 100% (2%). The “Mean drug recovery, Maquet circuit, 1 h” value [8] was 102% (1%), the “Mean drug recovery, Maquet circuit, 3 h” value [8] was 98% (2%) and the “Mean drug recovery, Maquet circuit, 6 h” value [8] was 99% (1%). The “Mean drug recovery, Maquet circuit, 12 h” value [8] was 91% (5%) and the “Mean drug recovery, Maquet circuit, 24 h” value [8] was 81% (1%).

For C[C@@H](O)[C@H]1C(=O)N2C(C(=O)O)=C(S[C@@H]3CN[C@H](C(=O)N(C)C)C3)[C@H](C)[C@H]12 [Meropenem, meropenem], the “Drug recovery, Sorin circuit, 3 h” value [3] was 100%, the “Drug recovery, Sorin circuit, 6 h” value [3] was 92% and the “Drug recovery, Sorin circuit, 12 h” value [3] was 74%. For the same molecule, the “Drug recovery, Sorin circuit, 24 h” value [3] was 47%, the “Lipophilicity (log P)” value [4] was −0.6 and the “Mean drug recovery, Control-3 h (Maquet experiment)” value [6] was 97% (4%). For the same molecule, the “Mean drug recovery, Control-6 h (Maquet experiment)” value [6] was 91% (9%), the “Mean drug recovery, Control-12 h (Maquet experiment)” value [6] was 77% (8%) and the “Mean drug recovery, Control-24 h (Maquet experiment)” value [6] was 65% (10%). For the same molecule, the “Drug recovery, Control-3 h (Sorin experiment)” value [6] was 97%, the “Drug recovery, Control-6 h (Sorin experiment)” value [6] was 102% and the “Drug recovery, Control-24 h (Sorin experiment)” value [6] was 95%. For the same molecule, the “Drug recovery (%) from control group at 24 h” value [6] was 74.84 (19.10) %, the “Mean drug recovery, Maquet circuit, 5 min” value [8] was 100% (0%) and the “Mean drug recovery, Maquet circuit, 15 min” value [8] was 100% (1%). For the same molecule, the “Mean drug recovery, Maquet circuit, 30 min” value [8] was 101% (4%), the “Mean drug recovery, Maquet circuit, 1 h” value [8] was 98% (0%) and the “Mean drug recovery, Maquet circuit, 3 h” value [8] was 93% (2%). The “Mean drug recovery, Maquet circuit, 6 h” value [8] was 83% (7%), the “Mean drug recovery, Maquet circuit, 12 h” value [8] was 64% (2%) and the “Mean drug recovery, Maquet circuit, 24 h” value [8] was 45% (5%). The “Drug recovery (%) from circuits at 24 h” value [7] was 45.37 (3.58) % and the “Average loss at 24 h in the circuits” value ([7]; loss, average of Maquet and Sorin circuits) was 55%.

For CC[C@H](C)CCCCC(=O)N[C@@H](CCN)C(=O)N[C@H](C(=O)N[C@@H](CCN)C(=O)N[C@H]1CCNC(=O)[C@H]([C@@H](C)O)NC(=O)[C@H](CCN)NC(=O)[C@H](CCN)NC(=O)[C@H](CC(C)C)NC(=O)[C@@H](Cc2ccccc2)NC(=O)[C@H](CCN)NC1=O)[C@@H](C)O [Polymyxin B, polymyxin B] (X1-[Dab]T[Dab][Dab][Dab][dF]L[Dab][Dab]T; lactam 4-C), the “Protein binding rate (%)” value [2] is given as 79–92%, the “Drug recovery, Sorin circuit, 5 min” value [3] is given as 118% and the “Drug recovery, Sorin circuit, 15 min” value [3] is given as 86%. The “Drug recovery, Sorin circuit, 30 min” value [3] was 84%, the “Drug recovery, Sorin circuit, 3 h” value [3] was 117% and the “Drug recovery, Sorin circuit, 6 h” value [3] was 74%. For the same molecule, the “Drug recovery, Sorin circuit, 12 h” value [3] was 74%, the “Drug recovery, Sorin circuit, 24 h” value [3] was 61.66 (-)^* % and the “Lipophilicity (log P)” value [4] was −4.861. For the same molecule, the “Drug recovery, Control-3 h (Sorin experiment)” value [6] was 91%, the “Drug recovery, Control-6 h (Sorin experiment)” value [6] was 93% and the “Drug recovery, Control-24 h (Sorin experiment)” value [6] was 60.10 (-)^* %.
